Laboratory results taken from ChEMBL document CHEMBL3600376, “Antibacterial activity of diketopiperazines isolated from a marine fungus using t-butoxycarbonyl group as a simple tool for purification” (2015).
≈ marks a conversion by molar mass, not a printed value.

Columns and labels:
Assay type in all cases: functional
Staphylococcus aureus = assay: Antibacterial activity against Staphylococcus aureus ATCC 25923 after 18 hrs by agar diffusion method; settings: ATCC 25923, 18 h
Bacillus subtilis = assay: Antibacterial activity against Bacillus subtilis NCTC 2116 after 18 hrs by agar diffusion method; settings: NCTC 2116, 18 h
Escherichia coli = assay: Antibacterial activity against Escherichia coli ATCC 25922 after 18 hrs by agar diffusion method; settings: ATCC 25922, 18 h

SMILES | MIC (Staphylococcus aureus) | MIC (Bacillus subtilis) | MIC (Escherichia coli)
COc1ccc2c3c(n(C(=O)OC(C)(C)C)c2c1)[C@H](C=C(C)C)N1C(=O)[C@@H]2CCCN2C(=O)[C@@H]1C3 | 2.8 µg/mL (≈ 5.84 µM) | 3.3 µg/mL (≈ 6.88 µM) | 16.4 µg/mL (≈ 34.2 µM)
O=C1N[C@@H](Cc2c[nH]c3ccccc23)C(=O)N2CCC[C@@H]12 [BREVIANAMIDE F] | 12.6 µg/mL (≈ 44.5 µM) | 11.9 µg/mL (≈ 42 µM) | > 20 µg/mL
CC(C)=CCc1c(C[C@H]2C(=O)N3CCC[C@H]3C(=O)N2C(=O)OC(C)(C)C)c2ccccc2n1C(=O)OC(C)(C)C | 2.2 µg/mL (≈ 3.99 µM) | 2.1 µg/mL (≈ 3.81 µM) | 19 µg/mL (≈ 34.4 µM)
CN(C)[C@@H]1C(O)=C(C(N)=O)C(=O)[C@@]2(O)C(O)=C3C(=O)c4c(O)cccc4[C@@](C)(O)[C@H]3C[C@@H]12 [TETRACYCLINE] | 1.5 µg/mL (≈ 3.38 µM) | 1.2 µg/mL (≈ 2.7 µM) | 3.9 µg/mL (≈ 8.78 µM)
O=C1N[C@@H](Cc2ccccc2)C(=O)N2CCC[C@@H]12 | 15.1 µg/mL (≈ 61.8 µM) | 17.2 µg/mL (≈ 70.4 µM) | > 20 µg/mL
CC(C)C[C@@H]1NC(=O)[C@@H]2CCCN2C1=O | 18.8 µg/mL (≈ 89.4 µM) | 15.7 µg/mL (≈ 74.7 µM) | > 20 µg/mL
CC(C)[C@@H]1NC(=O)[C@H]2CCCN2C1=O | 15.6 µg/mL (≈ 79.5 µM) | 16 µg/mL (≈ 81.5 µM) | 18.5 µg/mL (≈ 94.3 µM)

Further compounds by falling MIC (Staphylococcus aureus), results first:

MIC (Staphylococcus aureus) | MIC (Bacillus subtilis) | MIC (Escherichia coli) | SMILES
17.1 µg/mL (≈ 81.3 µM) | 15.8 µg/mL (≈ 75.1 µM) | > 20 µg/mL | CCC(C)[C@@H]1NC(=O)[C@@H]2CCCN2C1=O (stereo partly specified)
16.3 µg/mL (≈ 83.1 µM) | 18.2 µg/mL (≈ 92.7 µM) | > 20 µg/mL | CC(C)[C@@H]1NC(=O)[C@@H]2CCCN2C1=O
10.2 µg/mL (≈ 39.2 µM) | 8.7 µg/mL (≈ 33.4 µM) | > 20 µg/mL | O=C1N[C@@H](Cc2ccc(O)cc2)C(=O)N2CCC[C@@H]12
8.9 µg/mL (≈ 23.2 µM) | 6.7 µg/mL (≈ 17.5 µM) | > 20 µg/mL | CC(C)(C)OC(=O)n1cc(C[C@@H]2NC(=O)[C@@H]3CCCN3C2=O)c2ccccc21
0.05 µg/mL (≈ 0.137 µM) | 0.03 µg/mL (≈ 0.0821 µM) | 0.8 µg/mL (≈ 2.19 µM) | CC1(C)S[C@@H]2[C@H](NC(=O)[C@H](N)c3ccc(O)cc3)C(=O)N2[C@H]1C(=O)O [AMOXICILLIN]
